The text below walks through data of patent US9421197B2, “Methods of generating hyper INOS expressing cells and uses thereof” (CASE WESTERN RESERVE UNIVERSITY, priority 2010, dated 2016).

The test system of one series is excisional wounds. The experiment in a line: inflammatory wound model: wound healing curves. The settings on record: for day by which wounds healed: IL6−/− mice, inflammatory wound treatment, agent given i.p. Format: in vivo, mice.
A further series concerns iNOS and TNF-α mRNA. The series can be described thus: inflammatory wound model: iNOS and TNF-α expression in skin. The series is classed as in vivo. The settings on record: IL6−/− mice, combined wounding, UVB and topical rosiglitazone, 24 hours. The method, then: Cycle time, temperature, and number were based on Applied Biosystems recommendations. Skin was wounded with some modifications. Mice were treated with 3-6 mm excisional wounds, one midline and two on each side of the midline. […] Wounds were measured and treated with topical rosiglitazone solution daily until healed (loss of serum crust and reepithelialization). Lung Treatment and Preparation […] All other reagents were purchased from sigma.

For series [1] the following is noted: therapeutic doses; FDA alert May 21, 2007; cited from earlier work.
A further series has as its system peritoneal macrophages. The series can be described thus: thioglycollate-induced peritonitis, peritoneal macrophages analyzed ex vivo by RT-PCR. The settings on record: IL6−/− mice treated in vivo. The method, then:
For RT-PCR analysis, RNA was isolated using Trizol (Invitrogen) following the manufacturer's instructions, and was reverse-transcribed and quantified using Applied Biosystems TaqMan® RNA-to-CT™ 1-Step Kit, TaqMan® Gene Expression Assays for 18 s RNA, iNOS II, […], and IL-1β, and Step-One™ System. Cycle time, temperature, and number were based on Applied Biosystems recommendations.
Mice were injected i.p. with 2 ml of thioglycollate and sacrificed 24 hours later mice by cervical dislocation. Lavage was performed by infusing 5 ml of […] DPBS into the peritoneal cavity. The fluid sample is recovered by aspirating the liquid with a syringe. 80%±21% of instilled fluid volume is recovered. Macrophages were harvested following centrifugation of the […].

Another series deals with NF-κB p65 and STAT3. The experiment in a line: Western blot of nuclear NF-κB p65 and STAT3 in thioglycollate-elicited macrophages. The settings on record: reconstitution of IL6−/− macrophages. The series is classed as cell-based, mice.

Description for NF-κB p65 and STAT3: Mice were injected i.p. with 2 ml of thioglycollate and sacrificed 24 hours later mice by cervical dislocation. Lavage was performed by infusing 5 ml of 40 C DPBS into the peritoneal cavity. The fluid sample is recovered by aspirating the liquid with a syringe. 80%±21% of instilled fluid volume is recovered. Macrophages were harvested following centrifugation of the BAL fluid.
NE-PER kit (Thermo Scientific) was used to extract nuclear and cytoplasmic protein from peritoneal macrophages. Protein samples were prepared under reduced conditions and western blot analysis was performed using a standard protocol (Invitrogen). Stat3 (79D7) Rabbit mAb, NF— xB p65, β-actin (13E5) Rabbit mAb (Cell Signaling Technology, Danvers, Mass.) were used for western blot evaluation. Densiometry analyzed by Biorad VersaDoc imaging system.

Take `CN(CCOc1ccc(CC2SC(=O)NC2=O)cc1)c1ccccn1` (centres unmarked) [rosiglitazone]: in the series on excisional wounds (IL6−/− mice compared to wildtype, inflammatory wound protocol), the “delay of wound closure” value amounted to 8 days. In the series on iNOS and TNF-α mRNA, the “increase in TNF-α mRNA expression” value came to 13 fold and the “increase in iNOS mRNA expression” value came to 20 fold. Moreover, the “risk of heart attack” value in series [1] is “substantially increased risk”.

With `O=C(Nc1ccccc1)c1cc([N+](=O)[O-])ccc1Cl` [GW9662], in the series on peritoneal macrophages, the iNOS expression entry is reported as “No significant increase”.

As for `CC(=N)NCc1cccc(CN)c1` [1400 W], the “day by which wounds healed” value with excisional wounds is 14 days.

Consider rIL-6: recombinant IL-6 (R&D Systems), for which, in the series with NF-κB p65 and STAT3, the “STAT3 and NF-kB levels” value was “restores STAT3 and NF-kB levels similar to wildtype conditions”. Further, the “day by which wounds healed” value in the series with excisional wounds was 11 days.
